Assay results as given in patent US20250177375A1, “AZAPHILONE COMPOUND AND USE THEREOF IN PREPARATION OF ANTI-TUMOR DRUGS” (OCEAN UNIVERSITY OF CHINA, priority 2022, published 2025).
Entries after “also recorded” stand apart in the source; their conditions may differ.

Tests used:
NK92 cells [1] = assay: Killing function of NK92 cells against tumor cells after compound treatment (LDH assay, initial screening); type: cell-based, Human; conditions: for cytotoxicity at 0.1 µM: Homo sapiens, NK92 treated at 100 nM for 72 h, effector-to-target ratio 5:1, 5 h co-culture, LDH release, read-out: tumor killing rate by NK activation
Description: (§1) Seed the NK92 cells obtained from 1.3 into a 24-well cell culture plate (referred to as a 24-well plate) at a concentration of 3×10^5 cells/well, with 4 wells designated as blank or drug-treated. For the drug-treated wells, set the initial screening concentration to 100 nM. Add 900 μL of cell suspension and 100 μL of drug to each well. For the blank wells, add 100 μL of double-distilled water. Incubate the 24-well plate in a 37° C., 5% CO2 incubator for 72 h. Replace the fresh culture medium and add drugs every 24 h during the incubation.
(§2) Seed various types of tumor cells in logarithmic phase into a 96-well cell culture plate at a concentration of 5×10^3 cells/well. Set up 3 replicate wells for each concentration and include wells for target cell spontaneous release and target cell maximum release. Incubate the 96-well plate overnight in a 37° C., 5% CO2 incubator.
Centrifuge and count the NK92 cells from 2.1 in the 24-well plate cultured for 72 h. Add the cells to the overnight-cultured tumor target cells according to the effector-to-target ratio of 5:1 (excluding wells for target cell spontaneous release and maximum release). Also, set up 3 effector cell control wells. Add 200 μL of cell suspension to each well, then centrifuge at 300 g, 25° C. for 5 min to allow sufficient contact between effector cells and target cells. Continue to place the 96 well plate in a 37° C., 5% CO2 incubator and co-cultivate the NK92 and target cells for 5 h.
Lactate dehydrogenase (LDH) assay kit (BioGend Biotech Co., Ltd.) is used to detect the killing effect of effector cells on target cells. Add LDH release reagent to the wells with target cell maximum release and incubate for 1 h. After 1 h, centrifuge at 500 g, 25° C. for 5 min. Transfer 120 μL of supernatant from each well to a new 96-well plate, add the prepared LDH detection solution (60 μL/well: 20 μL lactate solution, 20 μL 1×INT working solution, and 20 μL enzyme solution) in the dark, and mix well by pipetting. Incubate at room temperature in the dark for 20 min (wrapped in aluminum foil and shook slowly on a shaker). Measure the absorbance at 490 nm using a microplate reader and the measured absorbance value of each well should subtract the absorbance value of the background blank control well.
Cytotoxicity (%)=[(Experimental group−Effector cell control−Target cell spontaneous release)/(Target cell maximum release−Target cell spontaneous release)]×100.

cancer cell lines = assay: In vitro assays of cancer cell lines; type: cell-based; conditions: direct activity on cancer cell lines; read-out: IC50 in all in vitro assays of cancer cell lines
Text: In prior research (Sun C.; Ge X.; Mudassir S.; Zhou L.; Yu G.; Che Q.; Zhang G.; Peng J.; Gu Q.; Zhu T. New glutamine-containing azaphilone alkaloids from deep-sea-derived fungus Chaetomium globosum HDN151398. Mar. Drugs 2019, 17, 253.), the inventors discovered compound 1778.

NK92 cells [2] = assay: NK cell proliferation rate using CCK-8; type: cell-based, Human; conditions: 1-10000 nM, 72 h, FIG. 1
Description: 3. Determination of NK Cell Proliferation Rate Using CCK-8 after Treatment with 1778 3.1 Preparation of Compound Concentration Gradient: Dilute the azaphilone compound 1778 with double-distilled water to set up 5 concentrations, with final concentrations of 1, 10, 100, 1000, and 10000 nM in the wells.
Seed NK92 cells obtained from 1.3 into 96-well cell culture plate (referred to as a 96-well plate) at a concentration of 1×10^4 cells/well, […]. Set up 5 replicates for each compound concentration (also need to set a blank group, that is, double-distilled water replaces the compound), and seal wells with PBS. Incubate in a 37° C., 5% CO2 incubator for 72 h.
Remove the cell culture plates from 2.2 and add 10 μL of CCK-8 solution (Shanghai Yisheng Biotechnology Co., Ltd.) to each well, avoiding bubbles. After adding CCK-8 solution, incubate the 96-well cell culture plates in a 37° C., 5% CO2 incubator for 2.5 h. Measure the absorbance at 450 nm using a microplate reader to compare the proliferation level of NK92 cells.

NK92 cells [3] = assay: Killing ability of NK cell against tumor cells after treatment with 1778 (1, 10, 100 nM); type: cell-based, Human
Description: as §1, §2
Centrifuge and count the NK92 cells from 2.1 in the 24-well plate cultured for 72 h. […]
Lactate dehydrogenase (LDH) assay kit (BioGend Biotech Co., Ltd.) is used to detect the killing effect of effector cells on target cells. […] Measure the absorbance at 490 nm using a microplate reader and the measured absorbance value of each well should subtract the absorbance value of the background blank control well. […]

NK92 cells [4] = assay: NK cell activation factor release (ELISA) after co-culture with NCI-H1975; type: cell-based, Human
Description: NK cells release granzyme B and perforin to kill tumor cells upon activation, while release IFN-γ to regulate the mechanism of antitumor immunity.
5.1 Pre-treatment of NK92 Cells with Compound 1778: Seed NK92 cells into a 24-well plate and treat with drug as described in section 3.1.
Seed logarithmic phase NCI-H1975 cells into 96-well plates at a concentration of 1×10^4 cells/well. Set up 3 replicates for each concentration and control wells for target cell. Incubate the 96-well plate overnight in a 37° C., 5% CO2 incubator.
According to the effector-to-target ratio of 5:1, add NK92 cells to NCI-H1975, co-cultivate for over 6 h and centrifuge (500 g, 25° C.). Then collect supernatant (use within 24 h). Use ELISA kits (BD Biosciences, USA) to detect the release of 3 activating cytokines granzyme B (FIG. 3), perforin (FIG. 4), and IFN-γ (FIG. 5).

[5] = test system: primary NK cells isolated from the peripheral blood of healthy individuals; assay: Primary NK cell activation (CD107 flow cytometry), peripheral blood PBMCs from healthy donors; type: cell-based, Human; conditions: 1, 10, 100 nM, 72 h, K562 targets 5:1, FIG. 6
Description: (§3) CD107 is expressed on the surface of NK cells released by the activator. Therefore, the activation of NK cells can be reflected by detecting the content of CD107 expressed by cell membrane.
(§4) 6.1 Collect peripheral blood from normal individuals and pleural effusion from lung cancer patients using sterile anticoagulant tubes, and dilute with an equal volume of sterile PBS. Take a 50 ml centrifuge tube and absorb a certain volume of lymphocyte separation solution (Solarbio Science & Technology Co., Ltd.). Slowly add diluted peripheral blood and pleural effusion in a volume ratio of 4:3. Centrifuge at 400 g at room temperature for 30 min (Adjust the lifting and deceleration speed of the centrifuge to rise 1 or down 1). 6.2 Carefully absorb the white lymphocyte layer in the middle and place it in PBS (at least three times the volume of the absorbed cells). Overturn and blending, and wash the cells. Centrifuge at 100 g at room temperature for 10 min. Discard the supernatant, resuspend the cell pellet in 10 ml PBS, and gently mix. Wash off residual Ficoll, then centrifuge again at 100 g for 10 min. Discard the supernatant, resuspend the cell pellet in RPMI-1640 complete medium, and continue culture for 3 days with RPMI-1640 complete medium containing 10 ng/ml IL-2 to stimulate primary NK cell expansion and activation. […] The detection results were analyzed using FlowJo software.

[6] = test system: primary NK cells from the pleural fluid of lung cancer patients; assay: Primary NK cell activation (CD107 flow cytometry), pleural effusion from lung cancer patients; type: cell-based, Human; conditions: 1, 10, 100 nM, 72 h, K562 targets 5:1, FIG. 7
Description: as §3, §4

B16F10 melanoma cells = assay: Melanoma lung metastasis model in C57BL/6 mice; type: in vivo; conditions: 25 mg/kg daily intraperitoneal, 14 days; B16F10 via tail vein; FIG. 8
Description: To investigate whether 1778 works in vivo, we used a melanoma lung metastasis model.
Mouse B16F10 melanoma cells were intravenously injected into mice, and then 1778 was administered for efficacy evaluation. B116F10 cells are highly metastatic and lack MHC class-I expression, and it has been previously reported that the metastasis of B116F10 cells in vivo is mainly controlled by NK cells.
7.1 Inject 200,000 B116F10 cells via the tail vein into each C57BL/6J mouse. 7.2 A daily intraperitoneal injection of 1778 at a dose of 25 mg/kg (diluted with PBS solution to a final volume of 200 μL). The control group was injected intraperitoneally with an equivalent volume of PBS (with the same concentration of solvent DMSO). Weigh the mice every other day to monitor the impact on body weight. After 14 days of drug administration, euthanize the mice, collect lung tissue, and fix it in tissue fixative. Count and statistically analyze the number of melanoma colonies in the lungs.

Compound | cytotoxicity at 0.1 µM (NK92 cells [1]) | also measured
CC[C@H](C)/C=C(C)/C=C/C1=CC2=C(Cl)C(=O)[C@](C)(OC(C)=O)C(=O)C2=CN1[C@@H](Cc1ccc(O)cc1)C(=O)O [Compound 1997] | 29.5% | –
C/C=C(\C)C(=O)C1=C2C3=CN([C@@H](CCC(=O)OC)C(=O)OC)C(/C=C/[C@@H](C)CC)=CC3=C(Cl)C(=O)[C@@]2(C)OC1=O [Compound 1779] | 22% | –
CC[C@H](C)/C=C(C)/C=C/C1=CC2=C(Cl)C(=O)[C@](C)(OC(C)=O)C(=O)C2=CN1[C@H](C(=O)O)[C@@H](C)O [Compound 2309] | 28.3% | –
CC[C@H](C)/C=C(C)/C=C/C1=CC2=C(Cl)C(=O)[C@](C)(OC(C)=O)C(=O)C2=CO1 [Compound 2307] | 38.3% | –
C/C=C(\C)C(=O)C1=C2C3=CN([C@@H](CCC(=O)O)C(=O)O)C(/C=C/[C@@H](C)CC)=CC3=C(Cl)C(=O)[C@@]2(C)OC1=O [Compound 1778] | 75.2% | activation effect on NK92 cells (NK92 cells [1]; summary in words of the 100 nM screening table): very strong activation effect; IC50 (cancer cell lines): > 50 µM; proliferation of NK92 cells (NK92 cells [2]): weak proliferative effect; also recorded: promotes the proliferation; ability of NK92 cells to kill various types of tumor cells (NK92 cells [3]; 1, 10, 100 nM, FIG. 2): significantly enhances; also recorded: significantly promotes the killing activity; concentration at which NK cells are activated (NK92 cells [3]; concentrations as low as): 1 to 100 nM; release of granzyme B by NK-92 cells (NK92 cells [4]; co-culture with NCI-H1975, 5:1, FIG. 3): promotes the releases; also recorded: significantly promotes the release; release of perforin by NK-92 cells (NK92 cells [4]; co-culture with NCI-H1975, 5:1, FIG. 4): promotes the releases; also recorded: significantly promotes the release; release of IFN-γ by NK-92 cells (NK92 cells [4]; co-culture with NCI-H1975, 5:1, FIG. 5): significantly promotes the release; also recorded: promotes the releases; expression of CD107 (degranulation) in primary NK cells [5]: significantly promotes the degranulation; also recorded: significant increase; expression of CD107 (degranulation) in primary NK cells [6]: significantly promotes the degranulation; also recorded: significant increase; number of lung metastases (melanoma colonies in the lungs) (B16F10 melanoma cells): significant inhibitory effect; also recorded: significantly reduced
CC[C@H](C)/C=C(C)/C=C/C1=CC2=C(Cl)C(=O)[C@](C)(OC(C)=O)C(=O)C2=CN1CCO [Compound 2308] | 8.11% | –
CC[C@H](C)/C=C(C)/C=C/C1=CC2=C(Cl)C(=O)[C@](C)(OC(C)=O)C(=O)C2=CN1[C@@H](CC(C)C)C(=O)O [Compound 2001] | 18.7% | –
CC[C@H](C)/C=C(C)/C=C/C1=CC2=C(Cl)C(=O)[C@](C)(OC(C)=O)C(=O)C2=CN1[C@@H](C)C(=O)O [Compound 1998] | 78.4% | –
C/C=C(\C)C(=O)C1=C2C3=CN([C@@H](Cc4c[nH]cn4)C(=O)O)C(/C=C/[C@@H](C)CC)=CC3=C(Cl)C(=O)[C@@]2(C)OC1=O [Compound 2320] | 22.2% | –
CC[C@H](C)/C=C(C)/C=C/C1=CC2=C(Cl)C(=O)[C@](C)(OC(C)=O)C(=O)C2=CN1[C@@H](CO)C(=O)O [Compound 1999] | 58.3% | –
CC[C@H](C)/C=C(C)/C=C/C1=CC2=C(Cl)C(=O)[C@](C)(OC(C)=O)C(=O)C2=CN1[C@@H](Cc1ccccc1)C(=O)O [Compound 2000] | 65.2% | –
CC[C@H](C)/C=C(C)/C=C/C1=CC2=C(Cl)C(=O)[C@](C)(OC(C)=O)C(=O)C2=CN1CC(=O)O [Compound 1996] | 6.12% | –
C/C=C(\C)C(=O)C1=C2C3=CN([C@@H](Cc4c[nH]c5ccccc45)C(=O)O)C(/C=C/[C@@H](C)CC)=CC3=C(Cl)C(=O)[C@@]2(C)OC1=O [Compound 2318] | 35.9% | –
